Laboratory results from patent publication US20170298055A1, “sGC STIMULATORS” (IRONWOOD PHARMACEUTICALS, INC., priority 2014, published 2017).

Biological target: T1, human recombinant soluble guanylate cyclase enzyme α1β1 (Homo sapiens, UniProt Q02108+Q02153)
T1 construct: purchased Enzo Life Sciences ALX-201-177
T1 sequence (Q02153 1-619): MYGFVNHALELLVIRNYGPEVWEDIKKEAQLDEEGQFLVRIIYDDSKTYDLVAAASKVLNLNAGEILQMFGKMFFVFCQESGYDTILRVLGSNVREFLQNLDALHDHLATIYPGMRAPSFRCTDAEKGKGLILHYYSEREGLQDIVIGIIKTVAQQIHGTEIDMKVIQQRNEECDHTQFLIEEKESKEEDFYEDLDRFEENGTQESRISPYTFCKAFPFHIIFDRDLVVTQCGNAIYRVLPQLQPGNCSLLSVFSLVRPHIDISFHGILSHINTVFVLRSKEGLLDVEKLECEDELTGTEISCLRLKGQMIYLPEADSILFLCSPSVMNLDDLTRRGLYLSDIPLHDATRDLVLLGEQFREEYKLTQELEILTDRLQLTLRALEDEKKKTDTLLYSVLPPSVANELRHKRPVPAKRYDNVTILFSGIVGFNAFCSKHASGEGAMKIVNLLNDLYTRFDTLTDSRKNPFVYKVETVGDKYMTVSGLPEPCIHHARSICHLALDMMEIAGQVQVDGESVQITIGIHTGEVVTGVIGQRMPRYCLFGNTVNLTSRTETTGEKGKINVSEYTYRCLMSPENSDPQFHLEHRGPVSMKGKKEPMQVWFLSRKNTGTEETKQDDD
T1 sequence (Q02108 1-690): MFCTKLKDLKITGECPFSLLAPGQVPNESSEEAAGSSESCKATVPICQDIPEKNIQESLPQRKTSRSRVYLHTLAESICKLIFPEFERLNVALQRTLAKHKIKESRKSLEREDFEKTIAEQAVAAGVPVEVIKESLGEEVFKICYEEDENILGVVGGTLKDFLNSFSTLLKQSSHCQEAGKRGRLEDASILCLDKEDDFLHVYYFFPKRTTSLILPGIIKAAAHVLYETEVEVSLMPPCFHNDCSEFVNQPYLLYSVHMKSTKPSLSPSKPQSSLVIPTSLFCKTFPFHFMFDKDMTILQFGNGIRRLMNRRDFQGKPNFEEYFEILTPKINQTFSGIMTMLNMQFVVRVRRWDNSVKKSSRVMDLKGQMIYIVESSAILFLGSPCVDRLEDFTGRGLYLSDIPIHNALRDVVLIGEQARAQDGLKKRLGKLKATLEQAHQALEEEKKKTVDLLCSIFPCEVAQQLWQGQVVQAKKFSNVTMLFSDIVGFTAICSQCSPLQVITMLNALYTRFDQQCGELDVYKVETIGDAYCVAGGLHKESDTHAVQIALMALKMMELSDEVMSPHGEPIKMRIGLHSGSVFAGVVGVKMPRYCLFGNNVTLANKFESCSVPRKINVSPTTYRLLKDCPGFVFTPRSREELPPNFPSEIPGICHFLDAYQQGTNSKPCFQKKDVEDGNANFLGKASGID
Experiment: Purified human recombinant sGC α1β1 enzyme assay with DETA-NONOate, cGMP HTRF (Example 5)
Format: biochemical
Details: 30 uM DETA NONOate, 50% of maximal response of 30 uM Compound Y, read-out: sGC_Enz_HTRF_a1b1 EC50/IC50 Abs (Norm) (nM) Binned
Method: Purified human recombinant soluble guanylate cyclase enzyme α1β1 (h sGC) obtained from Enzo Life Sciences (P/N: ALX-201-177) was used to evaluate the activity of test compounds. The assay reactions contained 0.1 M Tris (pH 8.0), 0.5 mg/mL BSA, 2 mM DTT, 4 mM MgCl2, 30 uM DETA NONOate (Enzo Life Science P/N: ALX-430-014), and 12.5 ng/ml human soluble guanylate cyclase enzyme. […] Guanosine 5′-triphosphate (Sigma-Aldrich P/N: G8877) was added to a final concentration of 300 μM and enzyme reactions were incubated (100 μL, 384-well plate format) at 37° C. for 20 minutes. The controls contained 3% DMSO (low control), or 30 uM of Compound Y (high control). After the 20 minute incubation, the reaction was stopped with the addition of 100 μL of ice cold 20% acetic acid.
cGMP concentrations in all samples were determined using the cGMP HTRF (Cisbio P/N: 62GM2PEC) assay per manufacturer's instructions. A cGMP standard curve was fit using a 4-parameter fit (log(inhibitor) vs. response variable slope) using GraphPad Prism Software v.6. Samples were diluted appropriately to ensure that values fell within the linear range of the standard curve.
Data were fit using a 4-parameter fit (log(agonist) vs. response variable slope) using GraphPad Prism Software v.6.

SMILES	EC50 [nM]
CN(C)CCOc1nc(-c2cc(-c3ccon3)n(Cc3ccccc3F)n2)ncc1F [Compound I-2]	1000 to 5000
OCCOc1nc(-c2cc(-c3ccon3)n(Cc3ccccc3F)n2)ncc1F [Compound I-1]	1000 to 5000
